Experimental data: publication PMC11234452, “HydrogelFinder: A Foundation Model for Efficient Self‐Assembling Peptide Discovery Guided by Non‐Peptidal Small Molecules” (Advanced Science, 2024)
Residues, ends and D or L forms follow the SMILES beside them.

Key:
Format in all cases: physicochemical
[1] = TEM of hydrogel matrix, nanofiber width; settings: uranyl formate stain, ImageJ, 30 measurements per picture
Method: These nanofibers were entangled with one another, forming a 3D‐network that comprised the hydrogel matrix (Figure 4B).
The sample was prepared by placing a drop of peptide solution on a 200‐mesh copper grid (Electron Microscopy China) and allowed to stand for 1.0 min, then blotted with filter paper. Subsequently a drop of 1.0% Uranyl Formate was placed on the grid and allowed to stand for 1–2 min, then blotted with a piece of filter paper and left to air dry. Images were taken with a JEOL JEM‐2100Plus at 80 kV accelerating voltage. By calculating the width of peptide, The image J was used to measure 30 times for 1 TEM picture, and to gather statistics with frequency.^[ [26] ^]

[2] = Hydrogelation test, inverted tube method; settings: for pH (of hydrogelation) / Conc. (hydrogelation concentration): 37 °C overnight; for Conc. (hydrogelation concentration): pH adjusted with NaOH or HCl
Method: We subsequently evaluated their gelation capability (Figure S2, Supporting Information). After purification by HPLC, the obtained compounds were dissolved in water and the pH of the solution was adjusted to trigger self‐assembly and hydrogelation.
Observing gel behavior in an inverted test tube is a rapid and facile approach to determine whether a dissolved peptide formed a gel.
All compounds were placed in a glass tube (diameter 10 mm) and first dissolved in D.I water, sonicated for 5 min and putted on ice for 30 min. Then added 2x PBS buffer (5.4 mM KCl, 20 mM Na2HPO4, 4 mM KH2PO4) or D.I water to reach the final concentration of 1.0 wt%. pH was adjusted with NaOH or HCl. The solutions were stored in 37 °C incubator overnight. Gelation was confirmed by the inverting method.

[3] = Oscillatory rheology, dynamic time sweep; settings: 37 °C, 15 mm parallel geometry, gap 0.5 mm, G′ consistently higher than G″
Method: To further explore the gelation properties and self‐assembly behavior of the candidate self‐assembling molecules, we carried out a series of biophysical characterization experiments.
All rheological experiments were performed on an Anton Parr equipped with a steel 15 mm parallel geometry tool. […] To avoid dehydration, a layer of silicon oil was applied around the edge of the sample at the start of the measurement. Dynamic strain sweep experiments were performed to ensure that the time‐sweep data was collected in the linear regime of strain. The dynamic strain sweep was performed varying the strain from 0.1 to 100% at a constant frequency (6 rad s^−1).

| Compound | nanofiber width [1] | pH (of hydrogelation) ([2]; buffer 1X PBS) | Conc. (hydrogelation concentration) ([2]; buffer 1X PBS) [wt%] | storage modulus (G′) at equilibrium [3] | gelation outcome / gel appearance ([2]; in water, pH adjusted (2–12)) | pH (of hydrogelation) ([2]; in water) | Conc. (hydrogelation concentration) ([2]; in water) [wt%] |
| --- | --- | --- | --- | --- | --- | --- | --- |
| NC(=O)[C@H](Cc1ccccc1)NC(=O)[C@H](CC(=O)O)NC(=O)CNC(=O)[C@H](CCC(=O)O)NC(=O)[C@H](Cc1ccccc1)NC(=O)[C@H](CCC(=O)O)NC(=O)[C@@H](N)Cc1c[nH]c2ccccc12 [compound 16] (H-WEFEGDF-NH2; N-terminus assumed) | 9–10 nm | 5.0 | 1.0 | 1254 Pa | – | – | – |
| EYVRFF [compound 368, self-assembling peptide EYVRFF] | – | 3.0 | 1.0 | – | opaque hydrogel | – | – |
| FFFVF‐NH2 [compound 322, self-assembling peptide FFFVF‐NH2] | approximately 14 nm | – | – | 21,393 Pa | – | 7.0 | 1.0 |
| FYGVF‐NH2 [compound 166, self-assembling peptide FYGVF‐NH2] | ~25 nm | – | – | – | – | 7.0 | 0.5 |
| VKVKAFIDDK [compound 560, self-assembling peptide […]] | – | 8.0 | 1.0 | – | – | – | – |
